Test results from patent publication US20250152559A1, “METHODS FOR TREATING MYC-AMPLIFIED CANCER” (The Governing Council of the University of Toronto, priority 2023, published 2025).
Several values for one entry are separate records, joined by “and”; a condition that tells them apart may be missing. Equal values may be shown once.

Columns and labels:
[1] = system: de novo pyrimidine biosynthesis in flank tumor tissue; assay: LC-MS metabolome profiling of flank xenograft tissues of treated mice; format: in vivo; conditions: individual samples, listed as BAY
Procedure: In parallel to these experiments, subcutaneous flank xenografts were engrafted into two cohorts of mice, which were treated with the vehicle or R2. […] To investigate the pharmacokinetics of BAY in vivo, its concentration in plasma and brain tissues of healthy mice was directly quantified using an LC-MS approach. BAY was detected in both brains and plasma of mice undergoing treatment, however the plasma concentrations exceeded those of the brain by approximately 10-fold (FIG. 5H-I). To determine whether treatment with BAY affects de novo pyrimidine biosynthesis in vivo, changes in pyrimidine metabolism were measured in the brain in comparison to tumor tissues from the flank (FIG. 5J-K). Although BAY treatment impacted de novo pyrimidine metabolism in vivo in both brain and tumor tissues, with a similar pattern observed in vitro (FIG. 4A), the effect size was stronger in peripheral tumor tissue in comparison to brain tissue. Such findings further reflect the limited capacity for BAY to accumulate within the brain.
For metabolome profiling of tissues, ˜5 mg tissue were homogenized in 225 μL of −20° C. cold, methanol using a Bullet Blender Tissue Homogenizer (NextAdvance, Inc.) Bullet for 3 min. The homogenate was vortexed for 20 s and 750 μL of −20° C. cold methyl tertiary-butyl ether (MTBE) was added, and the mixture was vortexed for 10 s and shaken at 4° C. for 5 min. Next, 188 μL room temperature water was added and vortexed for 20 s to induce phase separation. After centrifugation for 5 min at 14,000×g, the bottom polar phase was collected and dried down. Metabolite extracts were reconstituted in LC-MS grade water/acetonitrile (50:50; v:v), vortexed for 1 min, sonicated for 15 min, and centrifuged at 16,000×g and 4° C. for 15 min to remove insoluble debris.
The LC-MS metabolomics and lipidomics analyses of the 3 NSC and 3 MB cell lines and tissues were performed on a UPLC-MS system consisting of an Orbitrap IQ-X Tribrid coupled to a Horizon Vanquish UPLC system (Thermo Fisher Scientific). The lipidomics analysis was conducted in positive-ion mode with a spray voltage of 3.5 kV while the metabolomics analysis was conducted in negative-ion mode with a spray voltage of −2.5 kV. The following source conditions were identical in both analyses and were set as follows: Sheath gas flow rate, 50 arbitrary units; Aux. gas flow rate, 10 arbitrary units; Sweep gas flow rate, 1 arbitrary unit; Ion transfer tube temp., 300° C.; Vaporizer temp., 350° C. The following acquisition parameters were used for MS1 analysis in both methods: resolution, 120,000, AGC target, 4e5. The maximum IT was set at […] for the lipidomics analysis and 200 ms for the metabolomics analysis. Data-dependent MS/MS parameters for the lipidomics analyses: resolution, 30,000; AGC target, 7.5e4; maximum IT, Dynamic (54 ms); time between Master Scans, 0.6 s; isolation window, 1.0 m/z; NCE/stepped nce, 20, 30, 40; intensity threshold, 5e4; exclude isotopes, on; dynamic exclusion, 3.0 s. Data-dependent MS/MS parameters for the metabolomics analyses: resolution. 15,000; AGC target, 7.5e4; maximum IT, Dynamic (22 ms); time between Master Scans, 0.6 s; isolation window, 1.0 m/z; NCE/stepped nce, 20, 30, 40, 50; intensity threshold, 5e4; exclude isotopes, on; dynamic exclusion, 5.0 s. To increase the total number of MS/MS spectra in the lipidomics analysis, five runs with iterative MS/MS exclusions were performed using the AcquireX function in Xcalibur (Thermo Fisher Scientific). In the metabolomics analysis, three runs with iterative MS/MS exclusions were performed using the AcquireX function. For the lipidomics analysis, chromatographic separation was achieved using a Waters Acquity UPLC CSH C18 (100 mm×2.1 mm i.d.; 1.7 μm) column injecting 2 μL. […] The column was equilibrated for 2 min at 15% B. The flow rate was set to 250 μL/min. The column temperature was maintained at 65° C. […]

[2] = system: SU_MB002 cells genomic DNA; assay: Differential methylation analysis (Illumina EPIC array); format: cell-based, human
Procedure: Illumina Human Infinium MethylationEPIC (EPIC) BeadChip (Illumina, CA, USA) array was performed at The Centre for Applied Genomics, The Hospital for Sick Children (Toronto) using the manufacturer's standard protocol.
Raw IDAT files (annotation: ilm10b4.hg19) were processed using R (Version 4.1.2) and quality control and normalization was performed using minfi^76. Intensity and density plots were generated, and no samples were removed from the analysis as the mean detection p-values for all probed genomic positions were <0.01 for each sample. Probes with mean detection p-values >0.01 across all samples were excluded. Probes mapping sex chromosomes, single nucleotide polymorphisms (SNPs), and cross-hybridisation probes were removed. Quantile normalization was performed, and density plots were generated before and after normalization. Differential analysis was completed with beta values of 768467 CpGs for 8 samples comparing BAY to DMSO at 48 h and 72 h using limma^77. P-values were adjusted for False Discovery Rate (FDR) using Benjamini and Hochberg method, and a 10% FDR and log FC of >|0.1| cut-off was used.
Differentially methylated positions (DMPs) were annotated using the USCS (UCSC_RefGene_Name, UCSC_RefGene_Group and Relation_to_Island) from the Infinium MethylationEPIC Manifest. The analysis was performed focusing on DMPs within promoter islands (considering TSS1500, TSS200, 5′UTR and 1st exon as promotor regions). Enrichment analysis of unique genes (using UCSC RefGene Name) identified within DMPs at promoter islands was performed using Enrichr (ENCODE TF ChIP-seq 2015)^43.

[3] = Mouse body weight / tolerability during treatment regimens; format: in vivo
Procedure: The treatment-naïve, patient-derived cell line, HD-MB03, was orthotopically engrafted into immunocompromised mice. Four days later, tumors were readily detectible via bioluminescence imaging. Thereafter mice were randomized into three cohorts, which were treated with either the vehicle or one of two BAY treatment regimens (R1 and R2; FIG. 5B).

[4] = flank tumor tissue of BAY-treated mice

CCn1c(CO)nn(-c2cc(O[C@@H](C)C(F)(F)F)c(C(=O)Nc3c(F)cccc3Cl)cc2F)c1=O [BAY2402234]
Glutamine normalized peak intensity (Area) [1, 4]: 55492788 and 50587148 and 68843176 and 56207472 | N-Carbamoyl aspartic acid normalized peak intensity (Area) [1, 4]: 385157056 and 380028608 and 450759360 and 384681824 | Orotic acid normalized peak intensity (Area) [1, 4]: 33617724 and 35906864 and 46970420 and 34348420 | UDP-GluNAc normalized peak intensity (Area) [1, 4]: 2589539 and 2049874 and 3781049 and 10999488 | UTP normalized peak intensity (Area) [1, 4]: 4036 and 1148 and 5307 and 1474 | Uridine 5′-diphosphate (UDP) normalized peak intensity (Area) [1, 4]: 5654 and 1891 and 15124 and 5023 | Uridine 5′-monophosphate normalized peak intensity (Area) [1, 4]: 17895140 and 14218088 and 25187528 and 9202930 | Uridine normalized peak intensity (Area) [1, 4]: 1736921 and 2207031 and 3920911 and 1886173 | dihydroorotic acid normalized peak intensity (Area) [1, 4]: 119216720 and 62149264 and 89191448 and 46399468 | BAY-2402234 normalized peak intensity (Area) [1]: 249608 and 266857 and 361684 and 146195 | DMPs in promoter islands ([2]; 48 h): 2/18 | differentially methylated positions (DMPs), BAY vs vehicle ([2]; 48 h of treatment): 18 | DMPs in promoter islands ([2]; 72 h): 123/751 | differentially methylated positions (DMPs), BAY vs vehicle ([2]; 72 h of treatment): 751 | tolerability over the entire treatment period ([3]; 5 mg/kg): well-tolerated | body weight ([3]; R2, after the 10 mg/kg doses): marginal, temporary weight loss
